Counter-ions that a name gives are not always drawn.
System: patients having a history of atrial fibrillation or atrial flutter
Assay: Prospective, multinational, multicentre, double-blind, placebo-controlled clinical study (ATHENA); analysis restarting the clock at first AF/AFL recurrence
Type: in vivo
Protocol: More particularly, the effects of dronedarone compared with placebo on cardiovascular (CV) end points were evaluated by restarting the clock at the time of first atrial fibrillation or atrial flutter recurrence detected in a scheduled ECG or requiring cardioversion.
The patients had to have a history of atrial fibrillation or flutter and/or could be in normal sinus rhythm or in atrial fibrillation or flutter at inclusion.
The patient recruitment was carried out by taking into account the following inclusion criteria:
• 1) One of the following risk factors had to be present: • age equal to or greater than 70 years, • hypertension (taking antihypertensives of at least two different classes), • diabetes, • history of cerebral stroke (transient ischemic event or completed cerebral stroke) or of systemic embolism, • left atrial diameter greater than or equal to 50 mm measured by echocardiography, • left ventricular ejection fraction less than 40%, measured by two-dimensional echography; or • age equal to or above 70, or even above 75, possibly combined with at least one of the risk factors below: • o hypertension (taking antihypertensives of at least two different classes), • o diabetes, • o history of cerebral stroke (transient ischemic event or completed cerebral stroke) or of systemic embolism, • o left atrial diameter greater than or equal to 50 mm measured by echocardiography, • o left ventricular ejection fraction less than 40%, measured by two-dimensional echography; • 2) availability of an electrocardiogram carried out during the past 6 months in order to document the presence or the history of atrial fibrillation or flutter; • 3) availability of an electrocardiogram carried out during the past 6 months in order to document the presence or absence of normal sinus rhythm.
• Patients in permanent atrial fibrillation • Patients in unstable hemodynamic condition such as acute pulmonary edema within 12 hours prior to start of study medication; cardiogenic shock; treatment with IV pressor agents; patients on respirator; congestive heart failure of stage NYHA IV within the last 4 weeks; uncorrected, hemodynamically significant primary obstructive valvular disease; hemodynamically significant obstructive cardomyopathy; a cardiac operation or revascularization procedure within 4 weeks preceding randomization • Planned major non-cardiac or cardiac surgery or procedures including surgery for valvular heart disease, coronary artery bypass graft (CABG), percutaneous coronary intervention (PCI), or on urgent cardiac transplantation list • Acute myocarditis or constrictive pericarditis • Bradycardia < 50 bpm and/or PR-interval ≥ 0.28 sec on the last 12-lead ECG. • Significant sinus node disease (documented pause of 3 seconds or more) or 2nd or 3rd degree atrioventricular block (AV-block) unless treated with a pacemaker.
• Plasma potassium < 3.5 mmol/I (as anti-arrhythmic drugs can be arrhythmogenic in patients with hypokalemia, this must be corrected prior to randomization. • A calculated GFR at baseline < 10 ml/min using the Cockroft Gault formula (GFR [ml/min] = (140 - AGE [years] * WEIGHT [kilograms] * CONSTANT / CREATININE [µmol/L], where CONSTANT is 1 for men and 0.85 for women )^i
Treatment was initiated using tablets containing either the placebo or an amount of dronedarone hydrochloride corresponding to 400 mg of dronedarone at a rate of twice a day with the morning and evening meal and more specifically at a rate of one tablet in the morning during or shortly after breakfast and one tablet in the evening during or shortly after dinner.
The anticipated duration of the treatment was variable according to the time at which each patient was included in the study, and could range from a minimum of 12 months for the last patient included up to a maximum corresponding to the entire duration of the study (12 months + duration of inclusion), i.e. approximately 30 months for the first patients included.

[1] = 1 - relative risk, versus placebo, after first AF/AFL recurrence

SMILES | primary composite end point occurred in patients (after a first AF recurrence, CV hospitalization or all-cause mortality, placebo 306) [patients] | primary composite end point occurred in patients (%) (after a first AF recurrence, placebo 38.6%) | patients hospitalized for worsening heart failure (including pulmonary edema or dyspnea of cardiac origin) (after first AF/AFL recurrence, placebo 5.0%) [%] | patients hospitalized for AF (after first AF/AFL recurrence, placebo 21.2%) [%] | total time spent in hospital (all patients with a first AF/AFL recurrence, placebo 1789 nights, P < 0.01) [nights] | percentage of hospitalization time spent in intensive care units (compared with the placebo group, P = 0.01, Figure 3) | first AF recurrence (percentage of patients with a first AF recurrence, placebo 34.1%) [%] | reduction in cardiovascular hospitalizations [1] [%] | reduction in cardiovascular hospitalizations or deaths [1] [%] | reduction in cardiovascular mortality [1] [%] | reduction of death [1] [%] | cardiovascular deaths (673 treated patients with a first AF/AFL recurrence, placebo 35) [cardiovascular deaths] | deaths (mortality from any cause) (673 treated patients with a first AF/AFL recurrence, placebo 51 deaths) [deaths] | events, cardiovascular hospitalizations (673 treated patients with a first AF/AFL recurrence, placebo 288 events) [events] | events, cardiovascular hospitalizations or mortality (principal judgement criterion) (673 treated patients with a first AF/AFL recurrence, placebo 306 events) [events] | relative risk, cardiovascular hospitalizations or deaths (versus placebo, Cox model, after first AF/AFL recurrence, p = 0.0025) | relative risk, cardiovascular hospitalizations (versus placebo, Cox model, after first AF/AFL recurrence, p = 0.0048) | relative risk, death from any cause (versus placebo, Cox model, after first AF/AFL recurrence, p = 0.018) | relative risk, cardiovascular mortality (versus placebo, Cox model, after first AF/AFL recurrence, p = 0.0342)
CCCCc1oc2ccc(NS(C)(=O)=O)cc2c1C(=O)c1ccc(OCCCN(CCCC)CCCC)cc1 [dronedarone, 2-n-Butyl-3-[4-(3-di-n-butylaminopropoxy)benzoyl]-5-methylsulphonamidobenzofuran] | 205 | 30.5 | 3.6 | 15.8 | 1273 | lower | 29.3 |  |  |  |  |  |  |  |  |  |  |  | 
CCCCc1oc2ccc(NS(C)(=O)=O)cc2c1C(=O)c1ccc(OCCCN(CCCC)CCCC)cc1 [dronedarone hydrochloride] |  |  |  |  |  |  |  | 23 | 24 | 47 | 44 | 15 | 23 | 195 | 205 | 0.76 | 0.77 | 0.56 | 0.53

Reference: patent publication EP2386300A1, “Use of dronedarone for the preparation of a medicament for use in the prevention of cardiovascular hospitalization or of mortality in patients having a first recurrence of atrial fibrillation or atrial flutter” (SANOFI, priority 2010, dated 2011)
